Experimental findings from paper PMC12040169 (PLOS Biology, 2025) are described below.

The nature of this data set: in vitro. Particulars: human, hela cells, % viability.
Consider `O=C(C1CCCC1)N1CCC(c2cccc(Cc3ccccc3Cl)n2)CC1` [CBK286507], for which the viability at 28.5 h, 10 µM worked out at 87.6%.
The same measure for `O=C(CN1CCOCC1)N1CCC(c2cccc(Cc3ccc(C(F)(F)F)cc3)n2)CC1` [CBK286508]: 101%.
Take `CC1CCc2nc(NC(=O)CC3CCN(C(=O)Cc4ccccc4)CC3)sc2C1` (centres unmarked) [CBK286509]: the viability at 28.5 h, 10 µM turned out to be 86.4%.
Turning to `COc1ccc(CCC(=O)N2CCCC(c3nccnc3-c3cccc(C)c3)C2)cc1` (centres unmarked) [CBK286510], the viability at 28.5 h, 10 µM turned out to be 99.6%.
With `O=C(CCc1ccc(F)cc1)N1CCC(c2cccc(Cc3ccccc3)n2)CC1` [CBK286511], the viability at 28.5 h, 10 µM turned out to be 114%.
As for `CCC(C)NC(=O)C1(Cc2cccc(-c3ccc(OC)cc3)c2)CCOCC1` (centres unmarked) [CBK286513], the viability at 28.5 h, 10 µM is 94.9%.
With `COc1ccc(-c2cccc(CC3(C(=O)NCc4cccs4)CCOCC3)c2)cc1` [CBK286514], the viability at 28.5 h, 10 µM amounted to 88.5%.
`COc1ccccc1-c1ccc(CC2(C(=O)NCCc3ccccc3)CCOCC2)cc1` [CBK286516]: the viability at 28.5 h, 10 µM worked out at 102%.
With `COc1ccccc1-c1ccc(CC2(C(=O)NCc3cccs3)CCOCC2)cc1` [CBK286517], the viability at 28.5 h, 10 µM was 93%.
For the molecule `COc1ccccc1-c1ccc(CC2(C(=O)NCc3ccc(F)cc3)CCOCC2)cc1` [CBK286518], the viability at 28.5 h, 10 µM came out at 100%.
As for `COc1ccccc1-c1ccc(CC2(C(=O)NCc3cccc(F)c3)CCOCC2)cc1` [CBK286521], the viability at 28.5 h, 10 µM was 92.6%.
For the molecule `Cc1cc(C)cc(-c2ccc(CC3(C(=O)NC(C)CO)CCOCC3)cc2)c1` (centres unmarked) [CBK286523], the viability at 28.5 h, 10 µM amounted to 110%.
The figure for `Cc1cc(Cc2ccc(Cl)cc2)cc(C2CCN(C(=O)Cc3csc(C)n3)CC2)n1` [CBK286526] is 88.5%; for `C[C@@H]1CN(Cc2ccco2)[C@H](C)CN1CC(=O)Nc1nc2c(s1)CCCC2` [CBK286530] it is 100%.
`Cc1c(NC(=O)CCCC(=O)O)c(=O)n(-c2ccccc2)n1C` [CBK286532]: the viability at 28.5 h, 10 µM came out at 93.1%.
With `O=C(O)CCC(=O)N1CCN(C(=O)c2ccco2)CC1` [CBK286533], the viability at 28.5 h, 10 µM was determined as 102%.
Take `O=C(O)CCCCCN1C(=O)C2CC=CCC2C1=O` (centres unmarked) [CBK286534]: the viability at 28.5 h, 10 µM came to 82.5%.
With `O=C(O)C1C2C=CC(C2)C1C(=O)N1CCc2ccccc21` (centres unmarked) [CBK286537], the viability at 28.5 h, 10 µM worked out at 85.2%.
Consider `O=C(O)C1=CC(c2ccc(O)cc2)n2ncnc2N1` (centres unmarked) [CBK286545], for which the viability at 28.5 h, 10 µM is 88.7%.
In the case of `CC(=O)N1N=C(c2ccc3c(c2)OCO3)CC1c1ccc(C(=O)O)cc1` (centres unmarked) [CBK286547], the viability at 28.5 h, 10 µM was found to be 95.4%.
Consider `COc1cccc(CN2CCC(C(=O)O)CC2)c1OC` [CBK286548], for which the viability at 28.5 h, 10 µM was 90.5%.
On to `CC(=O)N(CN1C(=O)CCC1=O)C(CC(C)C)C(=O)O` (centres unmarked) [CBK286553], for which the viability at 28.5 h, 10 µM is 87.7%.
The same measure for `O=C(O)C1CCN(C(=O)CSc2nc3ccccc3o2)CC1` [CBK286557]: 91.6%.
Regarding `O=C(O)c1cc(-c2ccccc2)oc1CSCCO` [CBK286559], the viability at 28.5 h, 10 µM came out at 92.3%.
With `Cc1cc(C(=O)NC(Cc2c[nH]c3ccccc23)C(=O)O)c(C)o1` (centres unmarked) [CBK286560], the viability at 28.5 h, 10 µM was 86.5%.
With `COc1cc(NS(=O)(=O)c2ccccc2)c(Cl)cc1C(=O)O` [CBK286564], the viability at 28.5 h, 10 µM was 98%.
For `Nc1cc(-c2ccccc2)nn1-c1ccc(C(=O)O)cc1` [CBK286565], the viability at 28.5 h, 10 µM was 84.9%.
For the molecule `CC1C(c2ccccc2)CCC(C(=O)O)C1C(=O)O` (centres unmarked) [CBK286566], the viability at 28.5 h, 10 µM is 90.5%.
For the molecule `CC1CCN(C(=O)C2CC(=O)N(c3ccc(C(=O)O)cc3)C2)CC1` (centres unmarked) [CBK286568], the viability at 28.5 h, 10 µM turned out to be 87.6%.
On to `CCOC(=O)N1CCC(NC(=O)CCC(=O)O)CC1` [CBK286569], for which the viability at 28.5 h, 10 µM was 91.5%.
`O=C(COc1ccc2ccccc2c1)N[C@@H](C(=O)O)c1ccc(O)cc1` [CBK286571]: the viability at 28.5 h, 10 µM was found to be 88.8%.
Consider `Cc1cc(C(=O)NCCC(=O)O)c2ccccc2n1` [CBK286573], for which the viability at 28.5 h, 10 µM came to 86%.
Consider `Cn1c(=O)cc(NCCCCCC(=O)O)[nH]c1=O` [CBK286574], for which the viability at 28.5 h, 10 µM was determined as 88.3%.
Turning to `O=C(O)C(Cc1ccccc1)C(C(=O)O)c1ccccc1` (centres unmarked) [CBK286578], the viability at 28.5 h, 10 µM stood at 94.3%.
Consider `C[C@H](NC(=O)N1CCN(C(=O)c2c[nH]c3ccccc23)CC1)C(=O)O` [CBK286581], for which the viability at 28.5 h, 10 µM turned out to be 84.5%.
`O=C(O)CN(CC(=O)Nc1ccc(Cl)cc1)Cc1ccccc1` [CBK286585]: the viability at 28.5 h, 10 µM was 85.5%.
`O=C(O)c1ccccc1C1Nc2ccccc2S(=O)(=O)N1Cc1ccccc1` (centres unmarked) [CBK286587]: the viability at 28.5 h, 10 µM was determined as 107%.
`C=CCC(NCc1ccccc1)c1ccc(C(=O)O)o1` (centres unmarked) [CBK286591]: the viability at 28.5 h, 10 µM came out at 84.1%.
For the molecule `CC(C)C(C(=O)O)N(C)C(=O)OCc1ccccc1` (centres unmarked) [CBK286593], the viability at 28.5 h, 10 µM stood at 84.8%.
Take `CC(C)(C)OC(=O)NC1CCN(C(=O)CCC(=O)O)CC1` [CBK286604]: the viability at 28.5 h, 10 µM came out at 95.9%.
For `O=C(CSc1ccccn1)Nc1ccc(C(=O)O)cc1` [CBK286605], the viability at 28.5 h, 10 µM worked out at 87.2%.
For the molecule `COc1ccc(CCN2C(=O)CC(C(=O)O)S/C2=N\c2ccccc2)cc1` (centres unmarked) [CBK286606], the viability at 28.5 h, 10 µM was found to be 90.6%.
Turning to `CC(C)C(NC(=O)C1CCC(C(C)(C)C)CC1)C(=O)O` (centres unmarked) [CBK286610], the viability at 28.5 h, 10 µM was 95.5%.
For the molecule `COc1cccc(N2CC(C(=O)Nc3cccc(C(=O)O)c3)CC2=O)c1` (centres unmarked) [CBK286612], the viability at 28.5 h, 10 µM came out at 99.7%.
For `N#Cc1cccnc1SC(C(=O)O)c1ccccc1` (centres unmarked) [CBK286614], the viability at 28.5 h, 10 µM worked out at 106%.
The figure for `O=C(O)C1CCN(C(=O)CCn2ccc3cc(Br)ccc32)CC1` [CBK286617] is 105%.
The figure for `COc1ccc(-c2csc(NC(=O)C(C)C)c2C(=O)O)cc1` [CBK286622] is 83.1%.
`O=C(O)Cn1cc(C(C(=O)O)N2CCN(c3ccccc3)CC2)c2ccccc21` (centres unmarked) [CBK286625]: the viability at 28.5 h, 10 µM was determined as 78.1%.
In the case of `O=C(O)C1CCC(CNc2ccc([N+](=O)[O-])cn2)CC1` (centres unmarked) [CBK286626], the viability at 28.5 h, 10 µM is 81.2%.
In the case of `Cn1cc(C(C(=O)O)N2CCN(c3ccccc3)CC2)c2cc(C(=O)O)ccc21` (centres unmarked) [CBK286627], the viability at 28.5 h, 10 µM stood at 115%.
The figure for `O=C(O)c1ccc(OCCN2C3=NCCN3c3ccccc32)cc1` [CBK286629] is 93%; for `O=C(O)c1nccnc1C(=O)NCCc1c[nH]c2ccc(Cl)cc12` [CBK286630] it is 93.8%.
The figure for `CCOC(=O)N1CCN(C(C(=O)O)c2c[nH]c3ccc(C)cc23)CC1` (centres unmarked) [CBK286632] is 93.1%; for `CC(=O)N1CCN(C(C(=O)O)c2c[nH]c3ccc(NC(=O)C(C)C)cc23)CC1` (centres unmarked) [CBK286634] it is 89.7%.
Consider `O=C(O)C1CCN(C(=O)[C@@H]2Cc3ccccc3CN2)CC1` [CBK286638], for which the viability at 28.5 h, 10 µM amounted to 91%.
The same measure for `COc1ccc(/C=C/C(=O)C2CC2)c(C(=O)O)c1OC` [CBK286639]: 97%; for `Cc1ccc(C2C(C(=O)c3ccccc3)=C(O)C(=O)N2CCC(=O)O)cc1` (centres unmarked) [CBK286642]: 81.1%; for `O=C(O)C(c1c[nH]c2ccccc12)N1CCN(S(=O)(=O)c2ccccc2)CC1` (centres unmarked) [CBK286643]: 83.6%.
On to `O=C(O)CNC(=O)Cn1ccc2ccc(OCc3ccccc3)cc21` [CBK286644], for which the viability at 28.5 h, 10 µM was found to be 85.9%.
The same measure for `CC(=O)N1CCN(C(C(=O)O)c2cn(Cc3ccccc3)c3ccc(C(=O)O)cc23)CC1` (centres unmarked) [CBK286648]: 79.6%.
Turning to `CC(SC1CCc2ccccc2NC1=O)C(=O)O` (centres unmarked) [CBK286652], the viability at 28.5 h, 10 µM came to 87.1%.
With `Cc1ccc(C2=NO[C@@](CC(=O)O)(C(=O)Nc3ccc4c(c3)OCCO4)C2)cc1` [CBK286653], the viability at 28.5 h, 10 µM was determined as 85.1%.
Take `O=C(CCNC(Cc1ccccc1)C(=O)O)c1ccccc1` (centres unmarked) [CBK286655]: the viability at 28.5 h, 10 µM came out at 83%.
As for `O=C(O)[C@@H]1CCCN1C(=O)C1CCC(Cn2nnc3ccccc3c2=O)CC1` (some centres unmarked) [CBK286658], the viability at 28.5 h, 10 µM turned out to be 88.6%.
Consider `CC(C)C1C(=O)Nc2ccccc2N1C(=O)NCCC(=O)O` (centres unmarked) [CBK286659], for which the viability at 28.5 h, 10 µM worked out at 87.4%.
In the case of `O=C(O)CSc1nc2nc3c(cc2c(=O)n1Cc1ccccc1)CCCC3` [CBK286662], the viability at 28.5 h, 10 µM came out at 86.4%.
The same measure for `O=C(O)CNC(=O)Cn1ccc2cc(OCc3ccccc3)ccc21` [CBK286665]: 81.2%.
In the case of `COCCNC(=O)N[C@H](Cc1ccccc1)C(=O)O` [CBK286667], the viability at 28.5 h, 10 µM was 85.5%.
The figure for `CC(C)[C@H](NC(=O)C1CC(=O)N(c2ccc(F)cc2)C1)C(=O)N1CCC(C(=O)O)CC1` (some centres unmarked) [CBK286669] is 94.8%; for `COc1ccc(OC)c(C2=NO[C@@](CC(=O)O)(C(=O)NC3CCCCC3)C2)c1` [CBK286672] it is 92.1%; for `O=C(O)C(c1c[nH]c2cc(F)ccc12)N1CCN(c2ccccc2)CC1` (centres unmarked) [CBK286675] it is 102%.
The same measure for `O=C1CC(c2ccc(C(=O)O)cc2)c2c(-c3ccc(Cl)cc3)n[nH]c2N1` (centres unmarked) [CBK286684]: 97%; for `O=C(O)c1[nH]c(=O)[nH]c(=O)c1CN1CCCCC1` [CBK286688]: 96.8%; for `CC(C)(C)OC(=O)N1CCC(C(=O)NC[C@H](CC(=O)O)c2ccc(Cl)cc2)CC1` [CBK286691]: 98%.
The figure for `Cc1c(C(=O)O)sc2ncn(CCCOc3ccc(Cl)cc3)c(=O)c12` [CBK286695] is 106%.
In the case of `COc1ccc(-c2cc(=O)oc3cc(OC(C)C(=O)O)ccc23)cc1` (centres unmarked) [CBK286696], the viability at 28.5 h, 10 µM is 105%.
For `Cc1oc2cc(OCC(=O)NCC(=O)O)ccc2c(=O)c1-c1ccc(Cl)cc1` [CBK286697], the viability at 28.5 h, 10 µM came out at 99.6%.
As for `Cc1nn2c(O)c(CCO)c(C(=O)O)nc2c1-c1ccc(Cl)cc1` [CBK286699], the viability at 28.5 h, 10 µM was found to be 108%.
The figure for `CC(C)Cc1ccc(C(CC(=O)O)C(=O)O)cc1` (centres unmarked) [CBK286703] is 109%.
For the molecule `O=C(O)Cn1cc(C(=O)COc2ccccc2)c2ccccc21` [CBK286708], the viability at 28.5 h, 10 µM was 85.4%.

Usually viability stands for a read-out of living cells in per cent, often relative to untreated cells.
